Settings: Fluid (supercritical or subcritical phases), Coaxial cylinder method

CCC [propane]
thermal conductivity [W/m/K]
Settings | 370.45 K | 371.05 K
2710 kPa | – | 0.03205
3100 kPa | – | 0.03344
3375 kPa | – | 0.03463
3452 kPa | 0.03558 | –
3487 kPa | 0.0359 | –
3655 kPa | – | 0.03745
3770 kPa | 0.03805 | –
3856 kPa | 0.03938 | –
3900 kPa | – | 0.04056
3986 kPa | 0.04204 | –
4042 kPa | 0.04385 | –
4095 kPa | – | 0.04417
4105 kPa | 0.04623 | –
4155 kPa | – | 0.04633
4170 kPa | 0.05102 | –
4190 kPa | 0.05329 | –
4200 kPa | 0.055 | –
4205 kPa | 0.05577 | –
4215 kPa | – | 0.04915
4217 kPa | 0.05902 | –
4224 kPa | 0.06133 | –
4227 kPa | 0.06249 | –
4232 kPa | 0.06383 | –
4235 kPa | – | 0.0519
4241 kPa | 0.06723 | –
4244 kPa | 0.06856 | –
4245 kPa | 0.06879 | –
4250 kPa | 0.07121 | –
4252 kPa | – | 0.05394
4255 kPa | 0.0743 | –
4260 kPa | 0.0774 | –
4265 kPa | 0.08106 | 0.05669
4270 kPa | 0.08804 | –
4275 kPa | 0.09622 | –
4276 kPa | – | 0.05854
4280 kPa | 0.1118 | –
4284 kPa | – | 0.06121
4285 kPa | 0.1252 | –
4289 kPa | – | 0.06357
4290 kPa | 0.1423 | –
4295 kPa | 0.156 | 0.06602
4300 kPa | 0.1452 | –
4301 kPa | – | 0.06867
4305 kPa | 0.1291 | –
4308 kPa | – | 0.07332
4310 kPa | 0.1181 | –
4313 kPa | – | 0.07659
4315 kPa | 0.1061 | –
4318 kPa | – | 0.08141
4319 kPa | – | 0.08406
4320 kPa | 0.101 | –
4322 kPa | – | 0.08836
4324 kPa | – | 0.09107
4325 kPa | 0.09628 | 0.09395
4326 kPa | – | 0.09568
4328 kPa | – | 0.09934
4329 kPa | – | 0.1013
4330 kPa | 0.09201 | –
4331 kPa | – | 0.1054
4332 kPa | – | 0.1075
4334 kPa | – | 0.1104
4335 kPa | 0.08809 | –
4336 kPa | – | 0.114
4337 kPa | – | 0.1159
4338 kPa | – | 0.1172
4339 kPa | – | 0.1178
4340 kPa | 0.08122 | 0.1185
4342 kPa | – | 0.1192
4343 kPa | – | 0.1192
4344 kPa | – | 0.1192
4345 kPa | 0.07814 | 0.1185
4346 kPa | – | 0.1178
4347 kPa | – | 0.1159
4349 kPa | – | 0.1121
4350 kPa | 0.07669 | –
4351 kPa | – | 0.1081
4354 kPa | – | 0.1028
4355 kPa | 0.07528 | –
4356 kPa | – | 0.09934
4358 kPa | – | 0.09657
4360 kPa | 0.07393 | 0.09395
4361 kPa | – | 0.09311
4365 kPa | – | 0.08989
4367 kPa | – | 0.08836
4370 kPa | – | 0.08616
4375 kPa | – | 0.08406
4377 kPa | 0.07217 | –
4383 kPa | – | 0.08141
4387 kPa | – | 0.08015
4392 kPa | – | 0.07865
4396 kPa | – | 0.07776
4400 kPa | 0.07099 | –
4402 kPa | – | 0.07633
4408 kPa | – | 0.07494
4414 kPa | – | 0.07363
4420 kPa | 0.07014 | 0.07231
4440 kPa | – | 0.07105
4485 kPa | – | 0.06921
4560 kPa | 0.06814 | –
4580 kPa | 0.06769 | –
4800 kPa | 0.06654 | –
5000 kPa | 0.06717 | –
5500 kPa | 0.06784 | –
5550 kPa | 0.06791 | –
5760 kPa | 0.06812 | –
6000 kPa | 0.06874 | –
6500 kPa | 0.06997 | –
7000 kPa | 0.07091 | –
7500 kPa | 0.07178 | –
8000 kPa | 0.07277 | –
8500 kPa | 0.07381 | –
9000 kPa | 0.07421 | –
9500 kPa | 0.07545 | –
10000 kPa | 0.07572 | –
10500 kPa | 0.07624 | –
11000 kPa | 0.07677 | –
11200 kPa | 0.07735 | –
11300 kPa | 0.07645 | –
15100 kPa | 0.08094 | –

— the NIST ThermoML archive (doi:10.1021/je500395f)
